Test results published in patent publication US20060069132A1, “Azolecarboxamide herbicides” (priority 2004, published 2006).

How the values were obtained:
wild oat = assay: Test B postemergence herbicide test; type: in vivo, Avena fatua; details: scale 0 (no effect) to 100 (complete control); for Plant response rating, Oat, Wild: Postemergence, 500 g ai/ha, visual rating after 13 to 15 days; for Oat, Wild plant response rating: postemergence, 125 g ai/ha, visual rating
How it was run: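 Read-out: visual comparison with controls, scored 0 to 100, where 100 means complete control and 0 no effect. Formulated chemicals were applied postemergence to plants 2–18 cm tall (1- to 4-leaf), or to flooded-paddy plants at the 2-leaf stage, then held 13 to 15 days under glass.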

lambsquarters = assay: Test B pre-/postemergence herbicide test; type: in vivo, Chenopodium album
How it was run: (§1)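 Pre: seeds sown, then sprayed. Post: 1–4-leaf plants (2–18 cm) sprayed at the same time. Paddy: flooded, treated at 2-leaf stage. Formulation: non-phytotoxic solvent with surfactant. Greenhouse 13–15 days; visual 0–100 score relative to controls.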

ducksalad = assay: Test B flooded paddy test; type: in vivo, Heteranthera limosa; details: 1000 g ai/ha, visual rating, scale 0 to 100 (0 no effect, 100 complete control), 13 to 15 days
How it was run: (§2)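 Paddy species grown to the 2-leaf stage under flooding; blackgrass sprayed postemergence at 2–18 cm (1- to 4-leaf stage). Plants kept in a greenhouse for 13 to 15 days, then visually rated against controls on 0 (no effect) to 100 (complete control).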

morningglory = assay: Test B pre-/postemergence herbicide test; type: in vivo, Ipomoea coccinea
How it was run: (§3)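 Test chemicals in a non-phytotoxic solvent mixture with surfactant were applied preemergence to seeded species and postemergence to plants 2-18 cm tall (1- to 4-leaf stage); rice and barnyardgrass were also tested in a flooded paddy at the 2-leaf stage. Visual rating versus controls after 13-15 days in greenhouse, scale 0 (no effect) to 100 (complete control).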

barnyardgrass = assay: Test B pre-/postemergence herbicide test; type: in vivo, Echinochloa crus-galli
How it was run: as §3

rice = assay: Test B flooded paddy test; type: in vivo, Oryza sativa; details: 1000 g ai/ha, visual rating, scale 0 to 100 (0 no effect, 100 complete control), 13 to 15 days
How it was run: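 Plants grow to 1- to 4-leaf stage (2–18 cm) for postemergence spraying, or to 2-leaf stage for the paddy test. Formulated compound is applied. Greenhouse holding lasts 13–15 days. Response is scored visually relative to controls, 0 no effect to 100 complete control; a dash means no result.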

pigweed = assay: Test B pre-/postemergence herbicide test; type: in vivo, Amaranthus retroflexus
How it was run: as §1

giant foxtail = assay: Test B pre-/postemergence herbicide test; type: in vivo, Setaria faberi
How it was run: as §1

Surinam grass = assay: Test B pre-/postemergence herbicide test; type: in vivo, Urochloa decumbens
How it was run: as §1

corn = assay: Test B pre-/postemergence herbicide test; type: in vivo, Zea mays
How it was run: as §1

large crabgrass = assay: Test B pre-/postemergence herbicide test; type: in vivo, Digitaria sanguinalis
How it was run: as §1

[1] = system: small flower umbrella sedge; assay: Test B flooded paddy test; type: in vivo, Cyperus difformis; details: 1000 g ai/ha, visual rating, scale 0 to 100 (0 no effect, 100 complete control), 13 to 15 days
How it was run: as §2

velvetleaf = assay: Test B pre-/postemergence herbicide test; type: in vivo, Abutilon theophrasti
How it was run: as §1

cocklebur = assay: Test B pre-/postemergence herbicide test; type: in vivo, Xanthium strumarium
How it was run: as §3

blackgrass = assay: Test B postemergence herbicide test; type: in vivo, Alopecurus myosuroides; details: scale 0 (no effect) to 100 (complete control); for Plant response rating, Blackgrass: Postemergence, 500 g ai/ha, visual rating after 13 to 15 days; for Blackgrass plant response rating: postemergence, 125 g ai/ha, visual rating
How it was run: as §2

[2] = Postemergence, 500 g ai/ha, visual rating after 13 to 15 days, scale 0 (no effect) to 100 (complete control)
[3] = Preemergence, 500 g ai/ha, scale 0 to 100
[4] = postemergence, 125 g ai/ha, visual rating, scale 0 (no effect) to 100 (complete control)
[5] = preemergence, 125 g ai/ha, 0 to 100 scale, 0 is no effect, 100 is complete control

## C=CCn1nc(C(C)(C)C)cc1C(=O)Nc1cccc(C(=O)NCC)c1 [Compound 56]
Wild oat
  Plant response rating, Oat, Wild: 20
  Oat, Wild plant response rating: 20
lambsquarters; [2]
  Plant response rating, Lambsquarters: 90
lambsquarters; [3]
  Lambsquarters plant response rating: 100
lambsquarters; [4]
  Lambsquarters plant response rating: 80
lambsquarters; [5]
  Plant response rating, Lambsquarters: 100
ducksalad
  Ducksalad plant response rating: 80
morningglory; [2]
  Plant response rating, Morningglory: 20
morningglory; [3]
  Morningglory plant response rating: 20
morningglory; [4]
  Morningglory plant response rating: 0
morningglory; [5]
  Plant response rating, Morningglory: 20
barnyardgrass; [2]
  Plant response rating, Barnyardgrass: 20
barnyardgrass; [3]
  Barnyardgrass plant response rating: 80
barnyardgrass; [4]
  Barnyardgrass plant response rating: 20
barnyardgrass; [5]
  Plant response rating, Barnyardgrass: 50
rice
  Rice plant response rating: 70
pigweed; [2]
  Plant response rating, Pigweed: 90
pigweed; [3]
  Pigweed plant response rating: 100
pigweed; [4]
  Pigweed plant response rating: 60
pigweed; [5]
  Plant response rating, Pigweed: 30
Giant foxtail; [2]
  Plant response rating, Foxtail, Giant: 20
Giant foxtail; [3]
  Foxtail, Giant plant response rating: 100
Giant foxtail; [4]
  Foxtail, Giant plant response rating: 20
Giant foxtail; [5]
  Plant response rating, Foxtail, Giant: 60
Surinam grass; [2]
  Plant response rating, Surinam Grass: 30
Surinam grass; [3]
  Surinam Grass plant response rating: 60
Surinam grass; [4]
  Surinam Grass plant response rating: 20
Surinam grass; [5]
  Plant response rating, Surinam Grass: 30
corn; [2]
  Plant response rating, Corn: 30
corn; [3]
  Corn plant response rating: 20
corn; [4]
  Corn plant response rating: 20
corn; [5]
  Plant response rating, Corn: 0
Large crabgrass; [2]
  Plant response rating, Crabgrass, Large: 20
Large crabgrass; [3]
  Crabgrass, Large plant response rating: 100
Large crabgrass; [4]
  Crabgrass, Large plant response rating: 10
Large crabgrass; [5]
  Plant response rating, Crabgrass, Large: 70
[1]
  Sedge, Umbrella plant response rating: 80
velvetleaf; [2]
  Plant response rating, Velvetleaf: 50
velvetleaf; [3]
  Velvetleaf plant response rating: 100
velvetleaf; [4]
  Velvetleaf plant response rating: 40
velvetleaf; [5]
  Plant response rating, Velvetleaf: 0
cocklebur; [2]
  Plant response rating, Cocklebur: 80
cocklebur; [3]
  Cocklebur plant response rating: 20
cocklebur; [4]
  Cocklebur plant response rating: 80
cocklebur; [5]
  Plant response rating, Cocklebur: 0
blackgrass
  Plant response rating, Blackgrass: 10
  Blackgrass plant response rating: 0

## CCn1nc(C(C)(C)C)cc1C(=O)Nc1cccc(C(=O)NCC(C)C)c1 [Compound 61]
Wild oat
  Plant response rating, Oat, Wild: 20
  Oat, Wild plant response rating: 20
lambsquarters; [2]
  Plant response rating, Lambsquarters: 100
lambsquarters; [4]
  Lambsquarters plant response rating: 90
lambsquarters; [5]
  Plant response rating, Lambsquarters: 100
ducksalad
  Ducksalad plant response rating: 80
morningglory; [2]
  Plant response rating, Morningglory: 50
morningglory; [4]
  Morningglory plant response rating: 20
barnyardgrass; [2]
  Plant response rating, Barnyardgrass: 30
barnyardgrass; [3]
  Barnyardgrass plant response rating: 60
barnyardgrass; [4]
  Barnyardgrass plant response rating: 20
barnyardgrass; [5]
  Plant response rating, Barnyardgrass: 20
rice
  Rice plant response rating: 0
pigweed; [2]
  Plant response rating, Pigweed: 60
pigweed; [4]
  Pigweed plant response rating: 20
pigweed; [5]
  Plant response rating, Pigweed: 80
Giant foxtail; [2]
  Plant response rating, Foxtail, Giant: 30
Giant foxtail; [3]
  Foxtail, Giant plant response rating: 80
Giant foxtail; [4]
  Foxtail, Giant plant response rating: 20
Giant foxtail; [5]
  Plant response rating, Foxtail, Giant: 20
Surinam grass; [2]
  Plant response rating, Surinam Grass: 30
Surinam grass; [4]
  Surinam Grass plant response rating: 20
Surinam grass; [5]
  Plant response rating, Surinam Grass: 10
corn; [2]
  Plant response rating, Corn: 40
corn; [3]
  Corn plant response rating: 10
corn; [4]
  Corn plant response rating: 20
corn; [5]
  Plant response rating, Corn: 0
Large crabgrass; [2]
  Plant response rating, Crabgrass, Large: 30
Large crabgrass; [3]
  Crabgrass, Large plant response rating: 100
Large crabgrass; [4]
  Crabgrass, Large plant response rating: 20
Large crabgrass; [5]
  Plant response rating, Crabgrass, Large: 50
[1]
  Sedge, Umbrella plant response rating: 60
velvetleaf; [2]
  Plant response rating, Velvetleaf: 70
velvetleaf; [4]
  Velvetleaf plant response rating: 30
velvetleaf; [5]
  Plant response rating, Velvetleaf: 70
cocklebur; [2]
  Plant response rating, Cocklebur: 100
cocklebur; [3]
  Cocklebur plant response rating: 0
cocklebur; [4]
  Cocklebur plant response rating: 60
cocklebur; [5]
  Plant response rating, Cocklebur: 0
blackgrass
  Plant response rating, Blackgrass: 0
  Blackgrass plant response rating: 0

## CCn1nc(C(C)(C)C)cc1C(=O)Nc1cccc(C(=O)NCC2CC2)c1 [Compound 62]
Wild oat
  Plant response rating, Oat, Wild: 30
  Oat, Wild plant response rating: 10
lambsquarters; [2]
  Plant response rating, Lambsquarters: 90
lambsquarters; [4]
  Lambsquarters plant response rating: 80
lambsquarters; [5]
  Plant response rating, Lambsquarters: 100
ducksalad
  Ducksalad plant response rating: 80
morningglory; [2]
  Plant response rating, Morningglory: 60
morningglory; [4]
  Morningglory plant response rating: 20
morningglory; [5]
  Plant response rating, Morningglory: 10
barnyardgrass; [2]
  Plant response rating, Barnyardgrass: 50
barnyardgrass; [3]
  Barnyardgrass plant response rating: 80
barnyardgrass; [4]
  Barnyardgrass plant response rating: 20
barnyardgrass; [5]
  Plant response rating, Barnyardgrass: 20
rice
  Rice plant response rating: 30
pigweed; [2]
  Plant response rating, Pigweed: 90
pigweed; [4]
  Pigweed plant response rating: 80
pigweed; [5]
  Plant response rating, Pigweed: 100
Giant foxtail; [2]
  Plant response rating, Foxtail, Giant: 30
Giant foxtail; [3]
  Foxtail, Giant plant response rating: 90
Giant foxtail; [4]
  Foxtail, Giant plant response rating: 10
Giant foxtail; [5]
  Plant response rating, Foxtail, Giant: 70
Surinam grass; [2]
  Plant response rating, Surinam Grass: 70
Surinam grass; [4]
  Surinam Grass plant response rating: 50
Surinam grass; [5]
  Plant response rating, Surinam Grass: 10
corn; [2]
  Plant response rating, Corn: 20
corn; [3]
  Corn plant response rating: 10
corn; [4]
  Corn plant response rating: 10
corn; [5]
  Plant response rating, Corn: 0
Large crabgrass; [2]
  Plant response rating, Crabgrass, Large: 20
Large crabgrass; [3]
  Crabgrass, Large plant response rating: 100
Large crabgrass; [4]
  Crabgrass, Large plant response rating: 10
Large crabgrass; [5]
  Plant response rating, Crabgrass, Large: 80
[1]
  Sedge, Umbrella plant response rating: 80
velvetleaf; [2]
  Plant response rating, Velvetleaf: 70
velvetleaf; [4]
  Velvetleaf plant response rating: 60
velvetleaf; [5]
  Plant response rating, Velvetleaf: 80
cocklebur; [2]
  Plant response rating, Cocklebur: 100
cocklebur; [3]
  Cocklebur plant response rating: 10
cocklebur; [4]
  Cocklebur plant response rating: 70
cocklebur; [5]
  Plant response rating, Cocklebur: 0
blackgrass
  Plant response rating, Blackgrass: 70
  Blackgrass plant response rating: 10

## CCN1CCc2c(NC(=O)c3cc(C(C)(C)C)nn3CC)cccc2C1=O [Compound 63]
Wild oat
  Plant response rating, Oat, Wild: 30
  Oat, Wild plant response rating: 20
lambsquarters; [2]
  Plant response rating, Lambsquarters: 80
lambsquarters; [4]
  Lambsquarters plant response rating: 80
lambsquarters; [5]
  Plant response rating, Lambsquarters: 90
ducksalad
  Ducksalad plant response rating: 90
morningglory; [2]
  Plant response rating, Morningglory: 20
morningglory; [4]
  Morningglory plant response rating: 20
morningglory; [5]
  Plant response rating, Morningglory: 0
barnyardgrass; [2]
  Plant response rating, Barnyardgrass: 20
barnyardgrass; [3]
  Barnyardgrass plant response rating: 100
barnyardgrass; [4]
  Barnyardgrass plant response rating: 10
barnyardgrass; [5]
  Plant response rating, Barnyardgrass: 60
rice
  Rice plant response rating: 60
pigweed; [2]
  Plant response rating, Pigweed: 70
pigweed; [4]
  Pigweed plant response rating: 40
pigweed; [5]
  Plant response rating, Pigweed: 100
Giant foxtail; [2]
  Plant response rating, Foxtail, Giant: 20
Giant foxtail; [3]
  Foxtail, Giant plant response rating: 100
Giant foxtail; [4]
  Foxtail, Giant plant response rating: 10
Giant foxtail; [5]
  Plant response rating, Foxtail, Giant: 60
Surinam grass; [2]
  Plant response rating, Surinam Grass: 20
Surinam grass; [4]
  Surinam Grass plant response rating: 10
Surinam grass; [5]
  Plant response rating, Surinam Grass: 20
corn; [2]
  Plant response rating, Corn: 20
corn; [3]
  Corn plant response rating: 30
corn; [4]
  Corn plant response rating: 20
corn; [5]
  Plant response rating, Corn: 0
Large crabgrass; [2]
  Plant response rating, Crabgrass, Large: 20
Large crabgrass; [3]
  Crabgrass, Large plant response rating: 100
Large crabgrass; [4]
  Crabgrass, Large plant response rating: 10
Large crabgrass; [5]
  Plant response rating, Crabgrass, Large: 70
[1]
  Sedge, Umbrella plant response rating: 100
velvetleaf; [2]
  Plant response rating, Velvetleaf: 50
velvetleaf; [4]
  Velvetleaf plant response rating: 40
velvetleaf; [5]
  Plant response rating, Velvetleaf: 10
cocklebur; [2]
  Plant response rating, Cocklebur: 70
cocklebur; [3]
  Cocklebur plant response rating: 10
cocklebur; [4]
  Cocklebur plant response rating: 60
cocklebur; [5]
  Plant response rating, Cocklebur: 0
blackgrass
  Plant response rating, Blackgrass: 20
  Blackgrass plant response rating: 10
